The test has as its target FAS (Mus musculus, UniProt P19096). The test can be described thus: FAS activity of treated 3T3-L1 cells (method of Kelley, NADPH oxidation). The conditions noted are these: C75 25 µM, 6 days; compared with rAIM. Type of test: cell-based.

FAS, sequence (P19096 whole entry): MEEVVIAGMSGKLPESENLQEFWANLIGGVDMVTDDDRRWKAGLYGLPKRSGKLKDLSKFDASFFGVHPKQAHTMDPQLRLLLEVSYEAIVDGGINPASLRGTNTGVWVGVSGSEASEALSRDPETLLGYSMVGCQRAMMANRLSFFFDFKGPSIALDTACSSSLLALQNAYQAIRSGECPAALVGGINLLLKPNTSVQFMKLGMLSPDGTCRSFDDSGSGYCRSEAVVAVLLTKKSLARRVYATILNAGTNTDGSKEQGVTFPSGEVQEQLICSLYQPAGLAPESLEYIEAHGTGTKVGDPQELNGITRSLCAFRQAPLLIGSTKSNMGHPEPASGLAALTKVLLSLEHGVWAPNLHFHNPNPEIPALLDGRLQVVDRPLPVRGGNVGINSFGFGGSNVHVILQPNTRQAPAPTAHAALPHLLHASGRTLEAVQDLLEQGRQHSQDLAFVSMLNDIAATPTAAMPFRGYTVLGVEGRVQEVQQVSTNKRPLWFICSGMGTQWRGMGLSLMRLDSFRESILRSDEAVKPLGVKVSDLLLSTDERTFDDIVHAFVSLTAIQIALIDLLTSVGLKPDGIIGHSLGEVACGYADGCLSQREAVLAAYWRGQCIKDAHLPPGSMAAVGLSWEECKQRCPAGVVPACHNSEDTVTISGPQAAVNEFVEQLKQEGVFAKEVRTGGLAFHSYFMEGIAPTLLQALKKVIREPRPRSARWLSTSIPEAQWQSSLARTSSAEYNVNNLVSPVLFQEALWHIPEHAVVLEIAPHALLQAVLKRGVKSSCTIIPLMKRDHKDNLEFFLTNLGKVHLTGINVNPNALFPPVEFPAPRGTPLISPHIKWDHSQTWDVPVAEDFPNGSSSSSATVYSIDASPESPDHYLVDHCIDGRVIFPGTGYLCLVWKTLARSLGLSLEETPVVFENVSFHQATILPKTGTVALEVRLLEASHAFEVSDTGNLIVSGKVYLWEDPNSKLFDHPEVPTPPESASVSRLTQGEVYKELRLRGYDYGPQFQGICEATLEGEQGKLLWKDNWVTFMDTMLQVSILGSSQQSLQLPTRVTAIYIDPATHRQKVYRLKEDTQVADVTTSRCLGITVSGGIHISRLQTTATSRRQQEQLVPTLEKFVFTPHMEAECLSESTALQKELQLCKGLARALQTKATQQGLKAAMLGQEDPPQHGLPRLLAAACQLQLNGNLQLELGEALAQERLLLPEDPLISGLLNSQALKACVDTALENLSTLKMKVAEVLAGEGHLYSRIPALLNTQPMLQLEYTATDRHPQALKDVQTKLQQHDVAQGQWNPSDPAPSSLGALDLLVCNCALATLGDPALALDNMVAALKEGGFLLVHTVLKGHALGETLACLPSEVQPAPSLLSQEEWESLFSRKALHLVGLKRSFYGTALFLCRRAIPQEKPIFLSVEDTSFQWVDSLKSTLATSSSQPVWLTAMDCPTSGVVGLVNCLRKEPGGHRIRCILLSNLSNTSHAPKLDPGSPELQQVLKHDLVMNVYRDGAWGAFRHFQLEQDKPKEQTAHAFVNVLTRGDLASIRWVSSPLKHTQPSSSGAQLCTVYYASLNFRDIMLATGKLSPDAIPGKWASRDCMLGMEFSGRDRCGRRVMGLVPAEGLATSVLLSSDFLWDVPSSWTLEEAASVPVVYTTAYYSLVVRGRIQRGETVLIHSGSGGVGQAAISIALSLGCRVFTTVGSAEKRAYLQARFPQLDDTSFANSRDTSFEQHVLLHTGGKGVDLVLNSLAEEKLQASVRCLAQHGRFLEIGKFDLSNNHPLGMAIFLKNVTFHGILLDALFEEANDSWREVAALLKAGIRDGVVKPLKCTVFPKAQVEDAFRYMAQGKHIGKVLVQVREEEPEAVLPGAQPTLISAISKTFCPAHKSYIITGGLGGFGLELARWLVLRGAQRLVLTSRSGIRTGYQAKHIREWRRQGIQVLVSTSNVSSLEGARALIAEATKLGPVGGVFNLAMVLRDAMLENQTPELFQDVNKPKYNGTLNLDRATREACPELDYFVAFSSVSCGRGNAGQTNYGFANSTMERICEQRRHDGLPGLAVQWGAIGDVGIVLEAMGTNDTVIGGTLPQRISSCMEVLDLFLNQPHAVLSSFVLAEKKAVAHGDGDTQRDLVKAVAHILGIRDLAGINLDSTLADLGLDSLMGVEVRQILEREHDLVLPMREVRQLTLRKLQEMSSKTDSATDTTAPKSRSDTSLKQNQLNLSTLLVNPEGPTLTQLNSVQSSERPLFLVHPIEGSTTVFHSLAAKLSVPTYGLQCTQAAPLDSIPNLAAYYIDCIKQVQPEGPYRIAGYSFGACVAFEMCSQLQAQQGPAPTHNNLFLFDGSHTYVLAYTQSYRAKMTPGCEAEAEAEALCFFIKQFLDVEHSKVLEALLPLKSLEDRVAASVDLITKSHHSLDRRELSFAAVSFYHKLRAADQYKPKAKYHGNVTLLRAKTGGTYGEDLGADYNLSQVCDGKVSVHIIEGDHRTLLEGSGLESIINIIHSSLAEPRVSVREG
Protocol: The influence of AIM on FAS activity of adipocyte or adipose tissue was examined. FAS activity was measured by the method of Kelley (Kelley et al., Biochem. J., 1986, 235:87-90) with slight modification. 3T3-L1 adipocytes, or lysates of adipose tissue of obese mice was mixed with acetyl-CoA and NADPH (0.2 M calcium phosphate buffer [pH 7.0] containing 0.4 mM EDTA), and the mixture was placed in a spectrophotometer cuvette and maintained at 30°C. 20 µl of malonyl-CoA solution (0.2 mM) was added to start an enzyme reaction and decrease of OD was measured at a chart speed 2 cm/min. Based on the results, the enzyme activity of FAS was evaluated using the molar extinction coefficient of oxidized NADPH as 6220.
First, the FAS activity of 3T3-L1 cells treated for 6 days in the presence or absence of rAIM (5 µg/ml), and in the presence of C75 (25 µM) was measured. […] The samples were dissolved (lysed) and the FAS activity was measured. The data was converted to that based on FAS protein, according to the results of WB performed using the same sample.

As to `C=C1C(=O)OC(CCCCCCCC)C1C(=O)O` (stereo not shown) [C75], the “level of suppression of FAS activity in 3T3-L1 adipocytes” value was “level of suppression was the same”.

The values are drawn from EP2573192A1, “METHOD AND KIT FOR DIAGNOSING AIM-RELATED ILLNESS” (Miyazaki, Toru, priority 2010, dated 2011).
